Assay results: US20060063784A1, “Method of using substituted pyrazolo [1,5-a] pyrimidines” (priority 2004, published 2006)
pIC50: −log10 of the molar value. Like-named read-outs stand apart in the source and are kept apart here.

System: 80S14 (p21-deficient) cells
Experiment: Cytotoxicity assay using isogenic cell lines: IC50 in 80S14 (p21-deficient) cells, SRB
Format: cell-based, human
Conditions: for pIC50: SRB; for IC50: 80S14, 120 h
Method in brief: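 IC50 is the concentration halving proliferation relative to untreated controls, read from SRB absorbance (560 nm) after TCA fixation. Test agent dilutions (5 pM–50 μM or 170 pg/ml–10 μg/ml) were left on p21-deficient 80S14 cells (12,000/well, pre-incubated overnight) for 5 days at 37 °C.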

[1] = Homo sapiens, 120 h, 80S14 p21-deficient cells, 5 days incubation, read-out: IC50 for 80SI4
[2] = Homo sapiens, read-out: IC50 for 80SI4 (uM)
[3] = Homo sapiens, 120 h, 80S14 (p21-deficient) cells, 5 days, class symbols, read-out: IC50 for 80S14
[4] = Homo sapiens, read-out: IC50 for 80S14 (uM)
[5] = 80S14 p21-deficient cells, 5 days incubation, read-out: IC50 for 80SI4

Structure (SMILES)	pIC50 [1]	pIC50 [3]	further results
CCCCNC(=O)Nc1cccc(-c2c(C)cnc3c(C(=O)c4cccs4)cnn23)c1 [Example 221, N-butyl-N′-{3-[6-methyl-3-(thien-2-ylcarbonyl)pyrazolo[1,5-a]pyrimidin-7-yl]phenyl}urea]	4.30 to 5.00	–	–
O=C(c1cccs1)c1cnn2c(-c3cccc(NS(=O)(=O)/C=C/c4ccccc4)c3)ccnc12 [Example 37, (E)-2-phenyl-N-{3-[3-(thien-2-ylcarbonyl)pyrazolo[1,5-a]pyrimidin-7-yl]phenyl}ethenesulfonamide]	4.30 to 5.00	–	–
C#CCCOC(=O)Nc1cccc(-c2ccnc3c(C(=O)c4cccs4)cnn23)c1 [Example 193, but-3-ynyl 3-[3-(thien-2-ylcarbonyl)pyrazolo[1,5-a]pyrimidin-7-yl]phenylcarbamate]	–	–	IC50 [2]: < 1 µM
O=C(Nc1cccc(-c2ccnc3c(C(=O)c4cccs4)cnn23)c1)OCc1ccncc1 [Example 416, Pyridin-4-ylmethyl 3-[3-(thien-2-ylcarbonyl)pyrazolo[1,5-a]pyrimidin-7-yl]phenylcarbamate]	–	> 6.00	–
COCCOc1cccc(-c2ccnc3c(C(=O)c4cccs4)cnn23)c1 [Example 264, [7-[3-(2-Methoxyethoxy)phenyl]pyrazolo[1,5-a]pyrimidin-3-yl]-2-thienyl-methanone]	–	5.00 to 6.00	–
CCC(=O)N(C)c1cccc(-c2ccnc3c(C(=O)c4cccs4)cnn23)c1 [Example 237, N-Methyl-N-[3-[3-(2-thienylcarbonyl)-pyrazolo[1,5-a]pyrimidin-7-yl]phenyl}-propanamide]	–	–	IC50 [4]: 1 to 10 µM
CN1CCN(C(=O)Nc2cccc(-c3ccnc4c(C(=O)c5cccs5)cnn34)c2)CC1 [Example 166, 4-methyl-N-{3-[3-(thien-2-ylcarbonyl)pyrazolo[1,5-a]pyrimidin-7-yl]phenyl}piperazine-1-carboxamide]	5.00 to 6.00	–	–
COCC(=O)Nc1cccc(-c2ccnc3c(C(=O)c4cccs4)cnn23)c1 [Example 61, 2-methoxy-N-{3-[3-(thien-2-ylcarbonyl)pyrazolo[1,5-a]pyrimidin-7-yl]phenyl]acetamide]	5.00 to 6.00	–	–
CC(C)[C@H](N)C(=O)Nc1cccc(-c2ccnc3c(C(=O)c4cccs4)cnn23)c1 [Example 83, N-1-{3-[3-(thien-2-ylcarbonyl)pyrazolo[1,5-a]pyrimidin-7-yl]phenyl}-L-valinamide]	–	–	pIC50 [5]: 5.00 to 6.00
COc1ccc(-c2ccnc3c(C(=O)c4cccs4)cnn23)cc1NC(=O)OC(C)C [Example 316, Isopropyl 2-methoxy-5-[3-(2-thienylcarbonyl)pyrazolo[1,5-a]pyrimidin-7-yl]phenylcarbamate]	–	5.00 to 6.00	–
O=C(c1cccs1)c1cnn2c(-c3cccc(NC/C=C/c4ccccc4)c3)ccnc12 [Example 412, [7-(3-{[(2E)-3-Phenylprop-2-enyl]amino}phenyl)pyrazolo[1,5-a]pyrimidin-3-yl] (thien-2-yl)methanone]	–	4.30 to 5.00	–
CC(C)OC(=O)Nc1cccc(-c2ccnc3c(C(=O)C4CCCC4)cnn23)c1 [Example 295, Isopropyl 3-[3-(cyclopentylcarbonyl)pyrazolo[1,5-a]pyrimidin-7-yl]phenylcarbamate]	–	–	IC50 [4]: 1 to 10 µM
O=C(CC1CCCC1)Nc1cccc(-c2ccnc3c(C(=O)c4cccs4)cnn23)c1 [Example 73, 2-cyclopentyl-N-{3-[3-(thien-2-ylcarbonyl)pyrazolo[1,5-a]pyrimidin-7-yl]phenyl}acetamide]	> 6.00	–	–
O=C(CNC(=O)NC1CCCCC1)Nc1cccc(-c2ccnc3c(C(=O)c4cccs4)cnn23)c1 [Example 138, N-2-[(cyclohexylamino)carbonyl]-N1-{3-[3-(thien-2-ylcarbonyl)pyrazolo[1,5-a]pyrimidin-7-yl]phenyl}glycinamide]	–	–	pIC50 [5]: 5.00 to 6.00
O=C(Nc1ccccc1)c1cccc(-c2ccnc3c(C(=O)c4cccs4)cnn23)c1 [Example 321, N-Phenyl-3-[3-(2-thienylcarbonyl)pyrazolo[1,5-a]pyrimidin-7-yl]benzamide]	–	> 6.00	–
O=C(c1ccco1)c1cnn2c(-c3cccc(N4CCCC4=O)c3)ccnc12 [Example 228, 1-[3-[3-(2-Furanylcarbonyl)pyrazolo-[1,5-a]pyrimidin-7-yl]phenyl]-2-pyrrolidinone]	–	4.30 to 5.00	–
Cc1cnc2c(C(=O)c3cccs3)cnn2c1-c1cccc(NC(=O)OCCCl)c1 [Example 212, 2-chloroethyl 3-[6-methyl-3-(thien-2-ylcarbonyl)pyrazolo[1,5-a]pyrimidin-7-yl]phenylcarbamate]	4.30 to 5.00	–	–
Cc1ccc(-c2ccnc3c(C(=O)c4cccs4)cnn23)cc1NC(=O)c1ccccc1 [Example 309, N-{2-Methyl-5-[3-(2-thienylcarbonyl)pyrazolo[1,5-a]pyrimidin-7-yl]phenyl}benzamide]	–	5.00 to 6.00	–
CCCCC/C(=C\c1ccccc1)CNc1cccc(-c2ccnc3c(C(=O)c4cccs4)cnn23)c1 [Example 410, [7-(3-{[(2E)-2-Pentyl-3-phenylprop-2-enyl]amino}phenyl)pyrazolo[1,5-a]pyrimidin-3-yl](thien-2-yl)methanone]	–	4.30 to 5.00	–

Structure (SMILES)	pIC50 [1]	pIC50 [3]	further results
O=[N+]([O-])c1cccc(-c2ccnc3c(-c4ccsc4)cnn23)c1 [Example 325, 7-(3-Nitrophenyl)-3-(3-thienyl)pyrazolo[1,5-a]pyrimidine]	–	4.30 to 5.00	–
CCCCCNC(=O)NCC(=O)Nc1cccc(-c2ccnc3c(C(=O)c4cccs4)cnn23)c1 [Example 136, N-2-[(pentylamino)carbonyl]-N-1-{3-[3-(thien-2-ylcarbonyl)pyrazolo[1,5-a]pyrimidin-7-yl]phenyl}gylcinamide]	–	–	pIC50 [5]: 4.30 to 5.00
C=CCOC(=O)NCC(=O)Nc1cccc(-c2ccnc3c(C(=O)c4cccs4)cnn23)c1 [Example 124, allyl 2-oxo-2-({3-[3-(thien-2-ylcarbonyl)pyrazolo[1,5-a)pyrimidin-7-yl]phenyl}amino)ethylcarbamate]	4.30 to 5.00	–	–
CC(C)CC(=O)Nc1cccc(-c2ccnc3c(C(=O)c4cccs4)cnn23)c1 [Example 47, 3-methyl-N-{3-[3-(thien-2-ylcarbonyl)pyrazolo[1,5-a]pyrimidin-7-yl]phenyl}butanamide]	–	–	IC50 [2]: < 1 µM
CC(=O)N(C)c1cccc(-c2ccnc3c(C(=O)c4cccs4)cnn23)c1 [Example 238, N-Methyl-N-[3-[3-(2-thienylcarbonyl)-pyrazolo[1,5-a]pyrimidin-7-yl]phenyl}-acetamide]	–	–	IC50 [4]: 10 to 50 µM
CC(C)NC(=O)Nc1cccc(-c2ccnc3c(C(=O)c4cccs4)cnn23)c1 [Example 6, N-isopropyl-N′-{3-[3-(thien-2-ylcarbonyl)pyrazolo[1,5-a]pyrimidin-7-yl]phenyl}urea]	> 6.00	–	–
O=C(c1cccs1)c1cnn2c(-c3cccc(NS(=O)(=O)c4ccccc4)c3)ccnc12 [Example 31, N-{3-[3-(thien-2-ylcarbonyl)pyrazolo[1,5-a]pyrimidin-7-yl]phenyl}benzenesulfonamide]	5.00 to 6.00	–	–
Cc1ccc(-c2ccnc3c(C(=O)c4cccs4)cnn23)cc1NC(=O)CC(C)C [Example 310, 3-Methyl-N-{2-methyl-5-[3-(2-thienylcarbonyl)pyrazolo[1,5-a]pyrimidin-7-yl]phenyl}butanamide]	–	–	IC50 [4]: 1 to 10 µM
CC(=O)OCC(=O)Nc1cccc(-c2ccnc3c(C(=O)c4cccs4)cnn23)c1 [Example 62, 2-oxo-2-({3-[3-(thien-2-ylcarbonyl)pyrazolo[1.5-a]pyrimidin-7-yl]phenyl]amino)ethyl acetate]	–	–	pIC50 [5]: 5.00 to 6.00
C/C(=C\c1ccccc1)CNc1cccc(-c2ccnc3c(C(=O)c4cccs4)cnn23)c1 [Example 397, [7-(3-{[(2E)-2-Methyl-3-phenylprop-2-enyl]amino}phenyl)pyrazolo[1,5-a]pyrimidin-3-yl] (thien-2-yl)methanone]	–	4.30 to 5.00	–
Cc1ccc(S(=O)(=O)Nc2cccc(-c3ccnc4c(C(=O)c5cccs5)cnn34)c2)cc1 [Example 32, 4-methyl-N-{3-[3-(thien-2-ylcarbonyl)pyrazolo[1,5-a]pyrimidin-7-yl]phenyl}benzenesulfonamide]	> 6.00	–	–
O=C(Nc1cccc(-c2ccnc3c(C(=O)c4cccs4)cnn23)c1)OCCN1CCOCC1 [Example 181, 2-morpholin-4-ylethyl 3-[3-(thien-2-ylcarbonyl)pyrazolo[1,5-a]pyrimidin-7-yl]phenylcarbamate]	> 6.00	–	–
O=C(c1cccs1)c1cnn2c(-c3cccc(NC(=O)[C@@H]4CCCN4C(=O)C(F)(F)F)c3)ccnc12 [Example 52]	–	–	pIC50 [5]: 5.00 to 6.00
O=C(Nc1cccc(-c2ccnc3c(C(=O)c4cccs4)cnn23)c1)OCC(Cl)(Cl)Cl [Example 18, 2,2,2-trichlroethyl 3-[3-(thien-2-ylcarbonyl)pyrazolo[1,5-a]pyrimidin-7-yl]phenylcarbamate]	–	–	pIC50 [5]: > 6.00
O=C(Nc1cccc(-c2ccnc3c(C(=O)c4cccs4)cnn23)c1)c1cnc[nH]1 [Example 415, N-{3-[3-(Thien-2-ylcarbonyl)pyrazolo[1,5-a]pyrimidin-7-yl]phenyl}-1H-imidazole-5-carboxamide]	–	> 6.00	–
CN(C(=O)C1CCC1)c1cccc(-c2ccnc3c(C(=O)c4ccco4)cnn23)c1 [Example 233, N-[3-[3-(2-Furanylcarbonyl)-pyrazolo[1,5-a]pyrimidin-7-yl]phenyl}-N-methyl-cyclobutanecarboxamide]	–	4.30 to 5.00	–
CCOC(=O)CNC(=O)Nc1cccc(-c2ccnc3c(C(=O)c4cccs4)cnn23)c1 [Example 10, ethyl N-[({3-[3-(thien-2-ylcarbonyl)pyrazolo[1,5-a]pyrimidin-7-yl]phenyl}amino)carbonyl]glycinate]	4.30 to 5.00	–	–
C/C(=C\c1ccc(C(C)(C)C)cc1)CNc1cccc(-c2ccnc3c(C(=O)c4cccs4)cnn23)c1 [Example 413, [7-(3-{[(2E)-3-(4-tert-Butylphenyl)-2-methylprop-2-enyl]amino}phenyl)pyrazolo[1,5-a]pyrimidin-3-yl](thien-2-yl)methanone]	–	4.30 to 5.00	–
